Columns and labels:
[1] = system: OCI-AML2 (Acute Myeloid Leukemia); assay: combination Emax (second highest fraction inhibited in the dose matrix, 72 h); higher = more inhibition; extreme values may be limits of the assay
Method in brief: (§1)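 After 24 hours at 37°C and 5% CO2 in 1536-well plates, cells in DMEM/F12 or RPMI plus 10% FBS received two-drug dose matrices for 72 hours. Viability came from CellTiter-Glo 2.0 luminescence and was scaled as inhibition, anchored at 0 by vehicle wells and at 1 by blank wells. Combination Emax is taken as the second-highest inhibition in the matrix, and Bliss excess as the observed combination effect less EA + EB − EA·EB, with EA and EB the single-agent effects.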

[2] = system: U-266 (Plasma Cell Myeloma); assay: as above
Method in brief: as §1

NCI-H2369 (Mesothelioma) [3] = assay: as above
Method in brief: as §1

[4] = system: MFH-ino (Other Solid Carcinomas); assay: as above
Method in brief: as §1

[5] = system: SW1088 (Low Grade Glioma); assay: as above
Method in brief: as §1

NCI-H2595 (Mesothelioma) = assay: as above
Method in brief: as §1

[6] = system: LS-513 (Colorectal Carcinoma); assay: as above
Method in brief: as §1

[7] = system: SUIT-2 (Pancreatic Carcinoma); assay: as above
Method in brief: as §1

[8] = system: NALM-6 (B-Lymphoblastic Leukemia); assay: as above
Method in brief: as §1

[9] = system: NCI-H1694 (Small Cell Lung Carcinoma); assay: Bliss excess, mean over the matrix (fraction); higher = more synergy
Method in brief: as §1

[10] = system: SW1783 (Low Grade Glioma); assay: as above
Method in brief: as §1

NCI-H2369 (Mesothelioma) [11] = assay: as above
Method in brief: as §1

[12] = system: DMS-273 (Small Cell Lung Carcinoma); assay: as above
Method in brief: as §1

[13] = system: MDA-MB-157 (Breast Carcinoma); assay: as above
Method in brief: as §1

[14] = system: IHH-4 (Thyroid Gland Carcinoma); assay: as above
Method in brief: as §1

[15] = system: TE-5 (Esophageal Squamous Cell Carcinoma); assay: as above
Method in brief: as §1

[16] = system: LS-513 (Colorectal Carcinoma); assay: as above
Method in brief: as §1

[17] = system: SUIT-2 (Pancreatic Carcinoma); assay: as above
Method in brief: as §1

[18] = system: NALM-6 (B-Lymphoblastic Leukemia); assay: as above
Method in brief: as §1

[19] = system: JiyoyeP-2003 (Burkitt's Lymphoma); assay: as above
Method in brief: as §1
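Throughout, for Bliss excess, mean over the matrix: after 72 h of two-drug dosing.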

SMILES | combination Emax [1] | combination Emax [2] | combination Emax (NCI-H2369 (Mesothelioma) [3]) | combination Emax [4] | combination Emax [5] | combination Emax (NCI-H2595 (Mesothelioma)) | combination Emax [6] | combination Emax [7] | combination Emax [8] | Bliss excess [9] | Bliss excess [10] | Bliss excess (NCI-H2369 (Mesothelioma) [11]) | Bliss excess [12] | Bliss excess [13] | Bliss excess [14] | Bliss excess [15] | Bliss excess [16] | Bliss excess [17] | Bliss excess [18] | Bliss excess [19]
NC1(C(=O)N[C@@H](CCO)c2ccc(Cl)cc2)CCN(c2ncnc3[nH]ccc23)CC1 [Capivasertib] + CCN(CCO)CCCOc1ccc2c(Nc3cc(CC(=O)Nc4cccc(F)c4)[nH]n3)ncnc2c1 [AZD2811] (first compound max 10 µM, 7x7, partner max 1 µM) | 0.904 | 0.312 | 0.231 | 0.318 | 0.642 | 0.261 | 0.532 | 0.177 | 0.907 | 0.0503 | -0.0236 | -0.0446 | -0.0015 | 0.0354 | 0.0289 | -0.0283 | -0.0771 | -0.0074 | -0.0987 | -0.0303
NC1(C(=O)N[C@@H](CCO)c2ccc(Cl)cc2)CCN(c2ncnc3[nH]ccc23)CC1 [Capivasertib] + COc1nnc2ccc(N3CCC(c4ccc(OCCN5CCN(C)C(=O)[C@H]5C)cc4)CC3)nn12 [AZD5153] (first compound max 10 µM, 7x7, partner max 1 µM) | 1 | 0.38 | 0.268 | 0.513 | 0.638 | 0.301 | 0.641 | 0.535 | 0.945 | 0.0007 | 0.0324 | 0.004 | 0.0231 | 0.0204 | 0.0199 | 0.0361 | -0.0246 | 0.0367 | -0.0517 | -0.0714
NC1(C(=O)N[C@@H](CCO)c2ccc(Cl)cc2)CCN(c2ncnc3[nH]ccc23)CC1 [Capivasertib] + C[C@@H]1COCCN1C2=NC(=NC(=C2)C3(CC3)[S@](=N)(=O)C)C4=C5C=CNC5=NC=C4 [AZD6738] (first compound max 10 µM, 7x7, partner max 10 µM) | 0.983 | 0.365 | 0.338 | 0.602 | 0.707 | 0.29 | 0.794 | 0.493 | 0.984 | -0.0412 | -0.0511 | -0.0127 | -0.0377 | -0.0365 | 0.0028 | -0.0345 | -0.0697 | -0.0351 | -0.0686 | -0.0698
NC1(C(=O)N[C@@H](CCO)c2ccc(Cl)cc2)CCN(c2ncnc3[nH]ccc23)CC1 [Capivasertib] + Cn1cnc2c(F)c(Nc3ccc(Br)cc3Cl)c(C(=O)NOCCO)cc21 [Selumetinib] (first compound max 10 µM, 7x7, partner max 10 µM) | 1 | 0.694 | 0.231 | 0.556 | 0.618 | 0.29 | 0.867 | 0.646 | 0.697 | -0.0078 | -0.0097 | -0.0292 | -0.003 | -0.014 | -0.0165 | 0.0457 | 0.0031 | -0.0181 | 0.0323 | 0.101
Cc1nc(Nc2ncc(C(=O)Nc3c(C)cccc3Cl)s2)cc(N2CCN(CCO)CC2)n1 [Dasatinib] + CC(=O)Nc1cccc(-n2c(=O)n(C3CC3)c(=O)c3c(Nc4ccc(I)cc4F)n(C)c(=O)c(C)c32)c1 [Trametinib] (first compound max 2 µM, 7x7, partner max 1 µM) | 1 | 0.832 | 0.277 | 0.513 | 0.666 | 0.265 | 0.998 | 0.671 | 0.621 | -0.0311 | -0.0712 | -0.0535 | -0.0922 | -0.0026 | 0.112 | -0.0099 | 0.0777 | 0.0197 | 0.0217 | 0.193
COc1cccc2c1C(=O)c1c(O)c3c(c(O)c1C2=O)C[C@@](O)(C(=O)CO)C[C@@H]3O[C@H]1C[C@H](N)[C@H](O)[C@H](C)O1 [Doxorubicin] + Cc1cc2ncnn2cc1Nc1ncc2c(n1)n(C1CCOCC1)c(=O)n2C [AZD7648] (first compound max 1 µM, 7x7, partner max 10 µM) | 1 | 0.612 | 0.883 | 0.608 | 0.477 | 0.531 | 0.617 | 0.646 | 1 | 0.12 | 0.0262 | 0.029 | 0.0727 | 0.0033 | 0.109 | -0.0229 | 0.057 | 0.0432 | 0.139 | 0.094
CS(=O)(=O)CCNCc1ccc(-c2ccc3ncnc(Nc4ccc(OCc5cccc(F)c5)c(Cl)c4)c3c2)o1 [Lapatinib] + C[C@@H](Oc1cc(-c2cnn(C3CCNCC3)c2)cnc1N)c1c(Cl)ccc(F)c1Cl [Crizotinib] (first compound max 10 µM, 7x7, partner max 10 µM) | 0.915 | 0.495 | 0.254 | 0.25 | 0.654 | 0.458 | 0.966 | 0.657 | 0.959 | 0.025 | -0.0306 | -0.0253 | 0.0146 | -0.0086 | -0.0634 | -0.0054 | -0.023 | 0.0051 | -0.0612 | -0.0186
CC(=O)c1c(C)c2cnc(Nc3ccc(N4CCNCC4)cn3)nc2n(C2CCCC2)c1=O [Palbociclib] + CC1(C)CCC(CN2CCN(c3ccc(C(=O)NS(=O)(=O)c4ccc(NCC5CCOCC5)c([N+](=O)[O-])c4)c(Oc4cnc5[nH]ccc5c4)c3)CC2)=C(c2ccc(Cl)cc2)C1 [Venetoclax] (first compound max 10 µM, 7x7, partner max 1 µM) | 1 | 0.35 | 0.139 | 0.219 | 0.429 | 0.104 | 0.648 | 0.0936 | 0.933 | 0 | -0.0484 | -0.0543 | -0.0263 | -0.0348 | 0.0096 | -0.0558 | 0.0202 | -0.0454 | 0.0132 | 0.0975
CC(=O)c1c(C)c2cnc(Nc3ccc(N4CCNCC4)cn3)nc2n(C2CCCC2)c1=O [Palbociclib] + Cc1c2c(nn1C)CSCc1cc(n(C)n1)CSc1cc(c3ccccc3c1)OCCCc1c(C(=O)O)n(C)c3c-2c(Cl)ccc13 [AZD5991] (first compound max 10 µM, 7x7, partner max 1 µM) | 0.955 | 0.872 | 0.199 | 0.382 | 0.364 | 0.225 | 0.658 | 0.445 | 0.846 | -0.073 | -0.0248 | -0.0593 | -0.0565 | -0.0408 | -0.0171 | -0.0284 | -0.0235 | -0.014 | 0.0147 | -0.0436
CC(=O)c1c(C)c2cnc(Nc3ccc(N4CCNCC4)cn3)nc2n(C2CCCC2)c1=O [Palbociclib] + Cn1cnc2c(F)c(Nc3ccc(Br)cc3Cl)c(C(=O)NOCCO)cc21 [Selumetinib] (first compound max 10 µM, 7x7, partner max 10 µM) | 1 | 0.648 | 0.144 | 0.429 | 0.358 | 0.155 | 0.876 | 0.452 | 0.876 | -0.0989 | -0.0447 | -0.0483 | -0.0393 | -0.0396 | 0.0575 | -0.0511 | 0.0207 | 0.0481 | 0.0335 | 0.0443
COc1cccc(OCCCN)c1-c1cc(Nc2cnc(C#N)cn2)n[nH]1 [Prexasertib] + C=CCn1c(=O)c2cnc(Nc3ccc(N4CCN(C)CC4)cc3)nc2n1-c1cccc(C(C)(C)O)n1 [AZD1775] (first compound max 1 µM, partner max 1 µM) | 1 | 0.77 | 0.296 | 0.397 | 0.848 | 0.307 | 0.949 | 0.707 | 0.934 | 0.13 | -0.0053 | -0.0074 | 0.0795 | 0.0628 | 0.136 | -0.0245 | 0.0763 | 0.036 | 0.0507 | 0.0839
COc1cccc(OCCCN)c1-c1cc(Nc2cnc(C#N)cn2)n[nH]1 [Prexasertib] + CCc1c2c(nc3ccc(O)cc13)-c1cc3c(c(=O)n1C2)COC(=O)[C@]3(O)CC [SN-38] (first compound max 1 µM, 7x7, partner max 0.3 µM) | 1 | 0.703 | 0.4 | 0.704 | 0.849 | 0.426 | 0.751 | 0.713 | 0.983 | 0.0037 | -0.0739 | 0.0148 | 0.0356 | 0.0027 | -0.0653 | -0.0476 | -0.0691 | -0.0582 | -0.0555 | 0.0073
COc1cccc(OCCCN)c1-c1cc(Nc2cnc(C#N)cn2)n[nH]1 [Prexasertib] + CN(C)CCCOc1ccc(-c2ccc3ncc4c(c3c2)n(C2CCOCC2)c(=O)n4C)cn1 [AZD0156] (first compound max 1 µM, 7x7, partner max 1 µM) | 1 | 0.728 | 0.29 | 0.394 | 0.797 | 0.1 | 0.824 | 0.682 | 0.923 | -0.0433 | -0.0111 | -0.0016 | -0.0183 | -0.0226 | 0.0504 | 0.0016 | 0.0156 | -0.0055 | 0.0002 | -0.0003
COc1cccc(OCCCN)c1-c1cc(Nc2cnc(C#N)cn2)n[nH]1 [Prexasertib] + C[C@@H]1COCCN1C2=NC(=NC(=C2)C3(CC3)[S@](=N)(=O)C)C4=C5C=CNC5=NC=C4 [AZD6738] (first compound max 1 µM, 7x7, partner max 10 µM) | 1 | 0.65 | 0.192 | 0.572 | 0.762 | 0.141 | 0.8 | 0.747 | 0.943 | -0.06 | 0.0261 | -0.0274 | -0.0374 | -0.0256 | 0.0132 | 0.0203 | -0.0183 | -0.03 | -0.0522 | -0.0065
